Experimental data taken from patent EP0949238A1, “SUBSTITUTED PROPIONYL DERIVATIVES” (DAIICHI PHARMACEUTICAL CO., LTD., priority 1996, dated 1998).

Tests used:
rat liver cells = assay: Cholesterol synthesis inhibitory activity in rat liver cells ([14C]-acetic acid uptake in cholesterol); type: cell-based; conditions: concentration inhibiting 50% of [14C] acetic acid radioactivity uptake into cholesterol; SD rat liver cells; read-out: Cholesterol synthesis inhibitory action in rat liver cells IC50 (10^-6M)
Protocol: Liver cells were isolated from rat livers by the in situ collagenase perfusion method. Described specifically, a 6-week-old male SD rat was intraperitoneally administered with a 50 mg/ml pentobarbital sodium solution and thereby anesthetized. After ventrotomy and cannulation from the portal vein, the rat was sacrificed under exsanguination by the excision of the lower large vein. From the cannula, a Hanks solution (pH 7.2) containing 2% albumin, 0.5 mM ethyleneglycolbis(2-aminoethylether) tetraacetate (EGTA) and 10 mM HEPES and being free from a divalent calcium ion and a divalent magnesium ion was subjected to perfusion (flow rate: 0.5 ml/sec) for 5 minutes. The Hanks solution was then changed to another Hanks solution (pH 7.5) having 0.05% collagenase, 4 mM calcium chloride and 10 mM HEPES added thereto and perfusion was continued for further 15 to 20 minutes. After confirmation of the sufficient digestion by collagenase, the liver tissue was placed on a Petri dish, 30 ml of a Dulbeco's modified Eagle's (DEM) medium was added thereto and cells were dispersed by drawing through suction. A cell filter was employed to remove the undigested tissue. The resulting cell suspension was subjected to centrifugal separation at 600 rpm for 1 minute. A 30 ml of DME medium was added to the sediment to disperse the cells, followed by centrifugal separation at 600 rpm for 1 minute. After these washing procedures by centrifugation were repeated three times in total, the liver cell suspension was suspended in a DME medium containing 10% of lipoprotein deficient serum (LPDS). The resulting suspension was seeded on a commercially-available 6-well plate coated with collagen at a cell density of 1 x 10^6 cells per well, followed by incubation overnight in a CO2 incubator (5% CO2 gas, 37°C).
The uptake of [^14C]-acetic acid radioactivity in cholesterol was measured using the liver cells prepared in the above-described manner and the cholesterol synthesis inhibitory activity of the test medicament was evaluated.
Described specifically, the cell culture medium of the liver cells was replaced by a 25 mM HEPES-10% LPDS-DME medium (pH 7.4) containing the test medicament, followed by incubation for one hour in a CO2 incubator. Then, [^14C] sodium acetate was added to give the final concentration of 1 µCi/ml. After incubation for further one hour in the CO2 incubator, the cell culture medium was removed. The cells were washed three times with a phosphate buffered saline (pH 7.2) and then dissolved in 1 ml of a 0.1N aqueous sodium hydroxide solution. […] To the vial, 10 ml of Aquasol 2 was added and ^14C and ^3H radioactivities were counted by a liquid scintillation counter.
The cholesterol synthesis inhibitory activity of the test medicament was calculated in the below-described procedures. […]

squalene synthetase = target: T1, squalene synthetase (Homo sapiens, UniProt P37268); assay: Squalene synthetase inhibitory activity (HepG2 cell microsome fraction, [3H]farnesyl pyrophosphate incorporation into squalene); type: biochemical; conditions: HepG2 cell microsome preparation, 5 µM [3H]farnesyl pyrophosphate, 37°C for 20 minutes
T1 construct: 0.01 to 0.1 µg of the HepG2 cell microsome preparation; endogenous in cells; host or cells: HepG2 cells (microsome fraction)
T1 sequence (P37268 1-417): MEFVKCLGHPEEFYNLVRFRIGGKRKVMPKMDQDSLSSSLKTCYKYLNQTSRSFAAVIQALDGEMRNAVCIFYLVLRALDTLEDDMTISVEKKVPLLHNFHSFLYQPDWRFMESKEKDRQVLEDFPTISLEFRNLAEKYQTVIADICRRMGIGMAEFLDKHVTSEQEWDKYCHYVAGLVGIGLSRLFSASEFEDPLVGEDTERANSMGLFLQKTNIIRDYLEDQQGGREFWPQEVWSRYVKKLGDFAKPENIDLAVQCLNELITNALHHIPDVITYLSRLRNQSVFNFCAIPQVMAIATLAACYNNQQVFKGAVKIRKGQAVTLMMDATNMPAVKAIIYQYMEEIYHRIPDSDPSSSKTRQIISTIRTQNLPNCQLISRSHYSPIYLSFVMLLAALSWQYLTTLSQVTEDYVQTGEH
Protocol: As an enzyme source to measure squalane synthetase activity, we prepared a microsome fraction from a human hepatoma-derived cell line, HepG2 cells, according to the method described by Schechter et al. (Journal of Biological Chemistry, Vol. 267, pp.8628-8635, 1992).
Described specifically, HepG2 cells were first homogenized in the presence of a 10 mM N-2-hydroxyethylpiperazin-N'-2-ethanesulfonate (HEPES) buffer containing 0.3M sucrose, 1 mM dithiothreitol (DTT), 1 mM sodium ethylenediaminetetraacetate (EDT) and various protease inhibitors and adjusted to pH 7.4. The resulting mixture was subjected to centrifugal separation at 2,000 x g for 5 minutes and then 10,000 x g for 15 minutes. The protease inhibitors employed were phenylmethanesulfonyl fluoride (PMSF), leupeptin and aprotinin, which were added to give the final concentration of 1 mM, 10 µM and 5 µg/ml, respectively. The supernatant after centrifugation was centrifuged further at 105,000 xg for 60 minutes. The precipitate thus obtained was suspended in a 20 mM phosphate buffer (pH 7.4) containing 1 mM DTT, 1 mM EDTA and the above-described protease inhibitors and the resulting suspension was washed twice by centrifugation at 105,000 x g for 30 minutes. The precipitate was then suspended in a 20 mM phosphate buffer (pH 7.4) containing 1 mM DTT and 1 mM EDTA and the resulting suspension was similarly centrifuged. […]

| IC50 (rat liver cells) | IC50 (squalene synthetase) | Compound |
| --- | --- | --- |
| 0.32 µM | – | C[C@H](NC(=O)C[C@@H](CC(=O)O)C(=O)O)[C@@H](Cc1ccc(Cl)c(Cl)c1)OC(=O)c1ccc2ccccc2c1 [Compound A, (2S)-2-[N-{(1S,2R)-3-(3,4-dichlorophenyl)-1-methyl-2-(2-naphthoyloxy)propyl}carbamoylmethyl] succinic acid, reference compound] |
| 0.39 µM | – | CC(C)(C)CN1C(=O)[C@@H](CC(=O)NCC(=O)O)O[C@H](c2ccccc2Cl)c2cc(Cl)ccc21 [Compound B, N-[(3R,5S)-7-chloro-5-(2-chlorophenyl)-1-neopentyl-2-oxo-1,2,3,5-tetrahydro-4,1-benzoxazepin-3-acetyl] aminoacetic acid, reference compound] |
| 0.15 µM | 0.0003 µM | O=C(O)CO[C@@H](C(=O)O)[C@@H](OCCCCCc1ccc2ccccc2c1)C(=O)NCCCCCc1ccc2ccccc2c1 [Example 1, (2R,3R)-2-Carboxymethoxy-3-[N-[5-(2-naphthyl)pentyl]carbamoyl]-3-[5-(2-naphthyl)pentyloxy]propionic acid] |

| Compound | IC50 (rat liver cells) | IC50 (squalene synthetase) |
| --- | --- | --- |
| CN(CCCCCc1ccc2ccccc2c1)C(=O)[C@H](OCCCCNc1ccc2c(c1)CCC2)[C@@H](OCC(=O)O)C(=O)O [Example 48, (2R,3R)-2-Carboxymethoxy-3-[4-(5-indanylamino)butoxy]-3-[N-methyl-N-[5-(2-naphthyl)pentyl]carbamoyl]propionic acid] | 0.019 µM | – |
